Assay results as given in patent US6355669B1, “Retinoic acid agonists as preventive and therapeutic agents for nephritis” (Eisai Co., Ltd., priority 1997, dated 2002).

Tests used:
[1] = test system: accelerated Masugi nephritis; assay: Rat model with accelerated Masugi nephritis (proteins excreted in urine for 24 hours); assay type: in vivo, Sprague-Dawley strain rats; details: dose 0.3 mg/kg, oral once every day; compared with the control group; 0.3 mg/kg
Procedure: Sprague-Dawley strain rats were immunized by subcutaneously administering rabbit γ-globulin in a dose of 4 mg/rat along with Freund's complete adjuvant into the bottoms of their both hind legs. On the 5th day after the rats were immunized, 1 ml of anti-rat glomerular basement membrane rabbit serum diluted 6- or 8-fold was administered via tail veins into the animals. On the 8th day, the rats were forced to be orally administered 8 ml sterilized water and then placed in a metabolism cage, and their urine was collected for 24 hours during which the animals were allowed neither food nor water. As the indicator of the model with accelerated Masugi nephritis, the amount of proteins excreted in urine for 24 hours was used.
(§1) The medium was administered into the control group.

[2] = test system: anti-rabbit γ-globulin IgG2a antibody titer; assay: Rat model producing antibody (anti-rabbit γ-globulin antibody titer in serum, ELISA); assay type: in vivo, Sprague-Dawley strain rats; details: dose 0.3 mg/kg oral once every day for 14 days; 14th day after immunization
Procedure: Sprague-Dawley strain rats were immunized by subcutaneously administering rabbit γ-globulin in a dose of 4 mg/rat along with Freund's complete adjuvant into the bottoms of their both hind legs. On the 14th day after the rats were immunized, blood was collected from their tail veins and examined for anti-rabbit γ-globulin antibody titer in serum by the ELISA method.
The test compounds A, B, C and D were suspended respectively in 0.5% aqueous methyl cellulose solution and orally administered once every day for 14 days from the day on which the animals were immunized with rabbit γ-globulin. The medium was administered into the control group.

[3] = test system: anti-dinitrophenyl (DNP) IgG2a antibody titer; assay: Mouse model producing antibody (anti-DNP IgG2a antibody titer in serum, ELISA); assay type: in vivo, BALB/c mice; details: dose 0.1 mg/kg oral once every day for 10 days; 10th day after immunization
Procedure: BALB/c mice were immunized by administering dinitrophenylated keyhole limpet hemocyanin (DNP-KLH) as antigen intraperitoneally into them in a dose of 100 μg/mouse along with Freund's complete adjuvant. On the 10th day after the day on which the mice were immunized, blood was collected from the orbital venous plexus of the animals under anesthesia with ether and examined for anti-dintrophenyl (DNP) IgG2a antibody titer in serum by the ELISA method.
The test compounds B, E, F, G and H were suspended in 0.5% aqueous methyl cellulose solution and orally administered into the animals once every day for 10 days from the day when the animals were immunized with DNP-KLH. The medium was administered into the control group.

anti-ss DNA antibody = assay: Mouse model with spontaneous onset of SLE: production of anti-ss DNA antibody; assay type: in vivo, female (NZB×NZW) F1 mice
Procedure: (§2) In this experiment, female (NZB×NZW) F1 mice were used. Administration of each test compound was initiated at the age of 16 weeks, and blood was collected at predetermined intervals from the orbital venous plexus of the animals under anesthesia with ether and examined for anti-DNA (single-stranded chain: ss, double stranded chain: ds) antibody titer in serum. Further, urine was collected and measured for urine protein.
as §1

[4] = test system: albuminuria in (NZB×NZW)F1 mice; assay: Mouse model with spontaneous onset of SLE: urine protein / onset of albuminuria; assay type: in vivo, female (NZB×NZW) F1 mice; details: for Number of animals with Concentration of Urine Protein (mg/ml) <0.3 / Number of animals with Concentration of Urine Protein (mg/ml) >0.3 / Number of animals with Concentration of Urine Protein (mg/ml) >1 / Number of animals with Concentration of Urine Protein (mg/ml) >3 / Number of animals with Concentration of Urine Protein (mg/ml) >10: after 18 weeks of administration (34-week-old), 8 animals
Excerpt: as §2
The test compounds A, B and D were suspended in 0.5% aqueous methyl cellulose solution and orally administered daily once into the animals for 6 days/week for 18 weeks. The medium was administered into the control group.
The effect of each compound on the onset of albuminuria after 18 weeks of administration (in 34-week-old animals) is shown in Table 2.

human RARα = target: T1, human RARα (Homo sapiens, UniProt P10276); assay: Transcription-promoting activity via RAR (PLAP reporter in COS-1 cells), RAR-α; assay type: cell-based; parameters: expressed in transfected cells; host or cells: COS-1 (African green monkey kidney), transient lipofection; details: Relative ED30: ED30 of all-trans-retinoic acid for each receptor = 1
T1 sequence (P10276 1-462): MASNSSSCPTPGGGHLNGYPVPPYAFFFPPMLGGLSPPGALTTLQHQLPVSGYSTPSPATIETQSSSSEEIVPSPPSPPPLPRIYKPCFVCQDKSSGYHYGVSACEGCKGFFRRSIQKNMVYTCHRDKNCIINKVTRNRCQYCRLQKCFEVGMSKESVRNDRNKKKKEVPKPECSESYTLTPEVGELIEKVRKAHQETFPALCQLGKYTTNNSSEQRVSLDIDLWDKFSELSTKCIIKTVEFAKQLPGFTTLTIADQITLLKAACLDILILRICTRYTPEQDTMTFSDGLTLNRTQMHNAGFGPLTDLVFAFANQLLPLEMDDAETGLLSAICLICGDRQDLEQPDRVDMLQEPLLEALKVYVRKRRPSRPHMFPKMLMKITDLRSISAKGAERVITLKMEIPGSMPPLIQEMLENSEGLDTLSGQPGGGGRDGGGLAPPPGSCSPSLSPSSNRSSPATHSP
Procedure: (§3) A human RAR expression vector and a secretory alkali phosphatase (PLAP) gene vector (PLAP vector) having a response sequence integrated upstream for allowing RAR-bound PLAP to be expressed depending on ligand, were tentatively introduced into COS-1 (renal cell line derived from African green monkey). The PLAP, which was produced depending on ligand and secreted into a culture liquid, was measured by chemiluminescence techniques to examine the transcription-promoting activity of each test compound. Further, the ability of the test compound to promote the transcription of each receptor subtype was compared to determine the selectivity of the compound for RAR subtype.
(§4) 2.5×10^4 COS-1 cells were plated onto a 60-mm Petri dish, and after 4 days, the cells were transformed by lipofection with 4 μg expression vector for human RARα, RARβ or RARγ and 4 μg PLAP vector. After 1 day, the cells were recovered and plated at a density of 2×10^4 cells/well on a 96-well culture plate. After 4 hours, the medium was exchanged with a charcoal treated FBS-containing medium, then a diluted solution of all-trans-retinoic acid or a test compound was added thereto, and after 36 hours, the supernatant was recovered from the cell culture. The recovered sample was treated for 10 minutes at 65° C. to eliminate unspecific activity. 15 μl of the sample was mixed with 60 μl of 28 mM sodium carbonate buffer (pH 10) and reacted with 75 μl of a chemifluorescent substrate Smilight™ (Sumitomo Metal Industries, Ltd.) at 37° C. for 30 minutes to determine the […].
(§5) The concentration (ED30) of each test compound showing 30% activity, where it was assumed that the average transcriptional activity induced by and 3 μM all-trans-retinoic acid was 100%, was determined. Then, the relative ED30 of each compound, where it was assumed that the ED30 of all-trans-retinoic acid for each receptor was 1, is shown as Relative ED30* in Tables 4-1 and 4-2.

human RARβ = target: T2, human RARβ (Homo sapiens, UniProt P10826); assay: Transcription-promoting activity via RAR (PLAP reporter in COS-1 cells), RAR-β; assay type: cell-based; parameters: expressed in transfected cells; host or cells: COS-1 (African green monkey kidney), transient lipofection; details: Relative ED30: ED30 of all-trans-retinoic acid for each receptor = 1
T2 sequence (P10826 1-455): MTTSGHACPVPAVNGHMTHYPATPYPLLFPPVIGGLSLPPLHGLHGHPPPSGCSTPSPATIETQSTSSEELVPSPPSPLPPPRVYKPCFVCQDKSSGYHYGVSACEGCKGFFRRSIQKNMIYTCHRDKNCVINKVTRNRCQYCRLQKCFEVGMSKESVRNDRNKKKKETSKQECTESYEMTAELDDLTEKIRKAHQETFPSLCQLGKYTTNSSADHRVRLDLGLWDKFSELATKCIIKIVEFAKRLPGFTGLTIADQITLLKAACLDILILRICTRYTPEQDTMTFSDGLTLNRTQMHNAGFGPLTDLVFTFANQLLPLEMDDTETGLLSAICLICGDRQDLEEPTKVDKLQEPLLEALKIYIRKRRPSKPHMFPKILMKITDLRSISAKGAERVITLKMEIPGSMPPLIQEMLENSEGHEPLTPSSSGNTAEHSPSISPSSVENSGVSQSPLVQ
Procedure: as §3, §4, §5

human RARγ = target: T3, human RARγ (Homo sapiens, UniProt P13631); assay: Transcription-promoting activity via RAR (PLAP reporter in COS-1 cells), RAR-γ; assay type: cell-based; parameters: expressed in transfected cells; host or cells: COS-1 (African green monkey kidney), transient lipofection; details: Relative ED30: ED30 of all-trans-retinoic acid for each receptor = 1
T3 sequence (P13631 1-454): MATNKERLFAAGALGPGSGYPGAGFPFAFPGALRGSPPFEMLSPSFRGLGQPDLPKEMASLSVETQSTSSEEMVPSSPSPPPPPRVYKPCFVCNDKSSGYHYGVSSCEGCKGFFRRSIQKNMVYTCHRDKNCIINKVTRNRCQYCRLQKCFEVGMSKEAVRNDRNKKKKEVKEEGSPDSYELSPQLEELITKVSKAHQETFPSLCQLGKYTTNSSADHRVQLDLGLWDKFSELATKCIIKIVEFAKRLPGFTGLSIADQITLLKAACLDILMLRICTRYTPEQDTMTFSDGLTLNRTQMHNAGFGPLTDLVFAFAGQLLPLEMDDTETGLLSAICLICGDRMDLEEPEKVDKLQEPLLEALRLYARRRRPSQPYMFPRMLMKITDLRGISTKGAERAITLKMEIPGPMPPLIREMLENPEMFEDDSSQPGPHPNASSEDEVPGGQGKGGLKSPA
Procedure: as §3, §4, §5

anti-ds DNA antibody = assay: Mouse model with spontaneous onset of SLE: production of anti-ds DNA antibody; assay type: in vivo, female (NZB×NZW) F1 mice; details: 50 mg/kg; examined in the same manner
Procedure: as §2, §1

[5] = dose 0.03 mg/kg, after 18 weeks of administration

| Molecule | Degree of Inhibition of Albuminuria (%) [1] [%] | effect on anti-rabbit γ-globulin IgG2a antibody titer [2] | Transcription promoting activity ED30* RAR-α (human RARα) | Transcription promoting activity ED30* RAR-β (human RARβ) | Transcription promoting activity ED30* RAR-γ (human RARγ) | other results |
| --- | --- | --- | --- | --- | --- | --- |
| O=C(O)c1ccc(-c2ccc(-c3cc4c(C(F)(F)F)ccc(F)c4o3)[nH]2)cc1 [Compound B, 4-{2-[5-(7-fluoro-4-trifluoromethylbenzofuran-2-yl)pyrrolyl]}benzoic acid] | 90.7 | inhibited significantly | – | – | – | effect on anti-DNP IgG2a [3]: significantly inhibited; inhibition of production of anti-ss DNA antibody (in words) (anti-ss DNA antibody; 0.03 mg/kg oral, after 16 weeks of administration): significant inhibition; onset of albuminuria (in words) [4, 5]: complete inhibition; Number of animals with Concentration of Urine Protein (mg/ml) <0.3 ([4]; dose 0.03 mg/kg): 8; Number of animals with Concentration of Urine Protein (mg/ml) >0.3 ([4]; dose 0.03 mg/kg): 0; Number of animals with Concentration of Urine Protein (mg/ml) >1 ([4]; dose 0.03 mg/kg): 0; Number of animals with Concentration of Urine Protein (mg/ml) >3 ([4]; dose 0.03 mg/kg): 0; Number of animals with Concentration of Urine Protein (mg/ml) >10 ([4]; dose 0.03 mg/kg): 0 |
| Cc1ccc(C)c2c(F)c(-c3ccc(-c4ccc(C(=O)O)cc4)[nH]3)oc12 [Compound C, 4-{2-[5-(3-fluoro-4,7-dimethylbenzofuran-2-yl)pyrrolyl]}benzoic acid] | 87.7 | inhibited significantly | – | – | – | – |
| CCc1ccc(C)c2cc(-c3ccc(-c4ccc(C(=O)O)cc4)[nH]3)oc12 [Compound D, 4-{2-[5-(7-ethyl-4-methylbenzofuran-2-yl)pyrrolyl]}benzoic acid] | 80.3 | inhibited significantly | – | – | – | onset of albuminuria (in words) [4, 5]: complete inhibition; Number of animals with Concentration of Urine Protein (mg/ml) <0.3 ([4]; dose 0.03 mg/kg): 8; Number of animals with Concentration of Urine Protein (mg/ml) >0.3 ([4]; dose 0.03 mg/kg): 0; Number of animals with Concentration of Urine Protein (mg/ml) >1 ([4]; dose 0.03 mg/kg): 0; Number of animals with Concentration of Urine Protein (mg/ml) >3 ([4]; dose 0.03 mg/kg): 0; Number of animals with Concentration of Urine Protein (mg/ml) >10 ([4]; dose 0.03 mg/kg): 0 |
| CC1(C)CCC(C)(C)c2nc(-c3ccc(-c4ccc(C(=O)O)cc4)[nH]3)cnc21 [drawing 26] | – | – | 0.21 | 1.4 | 1.9 | – |
| CC1(C)CCCc2ncc(-c3ccc(-c4ccc(C(=O)O)cc4)[nH]3)nc21 [drawing 27] | – | – | 0.2 | 11 | 170 | – |
| CC1CCCN(C)c2ncc(-c3ccc(-c4ccc(C(=O)O)cc4)[nH]3)nc21 (stereo not shown) [drawing 28] | – | – | 1.4 | 7.4 | 20 | – |
| CCn1nc(-c2ccc(-c3ccc(C(=O)O)cc3)[nH]2)cc1C(C)C [drawing 29] | – | – | 0.85 | 14 | 89 | – |
| COCc1cc2c(cc1-c1ccc(-c3ccc(C(=O)O)cc3)[nH]1)C(C)(C)CCC2(C)C [drawing 30] | – | – | 1.9 | 29 | 62 | – |
| C[Si](C)(C)c1cc(C(=O)Nc2ccc(C(=O)O)cc2)cc([Si](C)(C)C)c1 [drawing 31] | – | – | 6 | 420 | 7800 | – |
| cyclosporin A [reference compound] | – | – | – | – | – | inhibition of production of anti-ds DNA antibody (in words) (anti-ds DNA antibody): did not inhibit; inhibition of production of anti-ss DNA antibody (anti-ss DNA antibody; 50 mg/kg, examined in the same manner, significant): about 85%; Number of animals with Concentration of Urine Protein (mg/ml) <0.3 ([4]; dose 50 mg/kg): 5; Number of animals with Concentration of Urine Protein (mg/ml) >0.3 ([4]; dose 50 mg/kg): 1; Number of animals with Concentration of Urine Protein (mg/ml) >1 ([4]; dose 50 mg/kg): 2; Number of animals with Concentration of Urine Protein (mg/ml) >3 ([4]; dose 50 mg/kg): 0; Number of animals with Concentration of Urine Protein (mg/ml) >10 ([4]; dose 50 mg/kg): 0; onset of albuminuria (in words) ([4]; dose 50 mg/kg, not statistically significant): showed inhibition |
